One assay relates to HIV-1 IIIB. As to the kind of experiment: HIV-1 entry inhibition assay in TZM-bl reporter cells, X4 strain. The assay is classed as cell-based.
Assay [1] has as its target T1, CXCR4 (Homo sapiens, UniProt P61073). Nature of the assay: cell-based. The following applies: TZM-bl, read-out: Inhibition of cell-associated 4DV3-Biot.
In assay [2] the target is T1, CXCR4. Nature of the assay: Inhibition of CXCR4 mAb-binding to TZM-bl cells. The following applies: serial dilutions in 1 μg/ml CXCR4 mAb, fixed TZM-bl cells, 40 min on ice.

Entries after “also recorded” stand apart in the source; their conditions may differ.

T1 sequence (P61073 whole entry): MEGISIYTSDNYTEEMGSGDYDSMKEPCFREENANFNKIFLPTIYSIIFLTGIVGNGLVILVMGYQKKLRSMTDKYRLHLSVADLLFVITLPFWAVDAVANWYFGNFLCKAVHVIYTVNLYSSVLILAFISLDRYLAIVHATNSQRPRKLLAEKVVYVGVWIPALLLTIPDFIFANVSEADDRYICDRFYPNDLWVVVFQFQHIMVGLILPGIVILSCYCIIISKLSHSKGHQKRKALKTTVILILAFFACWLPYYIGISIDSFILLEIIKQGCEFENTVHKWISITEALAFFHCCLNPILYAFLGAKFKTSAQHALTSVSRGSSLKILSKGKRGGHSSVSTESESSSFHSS

Regarding `c1cc(CN2CCCNCCNCCCNCC2)ccc1CN1CCCNCCNCCCNCC1` [AMD3100, bicyclam JM-2987], the IC50 in the assay with HIV-1 IIIB (Human immunodeficiency virus 1, IIIB, TZM-bl, read-out: IC50 of HIV-1 entry inhibition, X4 strain HIV-1 IIIB) amounted to 415 pM. Moreover, the “Potency of HIV-1 IIIB entry inhibition relative to 4DV3-FITC” value in the assay with HIV-1 IIIB (more potent than 4DV3-FITC, ratio of IC50, TZM-bl cells) is on record as 1000 fold. At CXCR4 [1], the inhibition at 20 µM worked out at 31% and the inhibition at 200 µM turned out to be 47%. Moreover, the “Inhibition of CXCR4 mAb clone 44708 binding to TZM-bl cells, in words” value on CXCR4 [2] is “poor ability to inhibit mAb binding; also recorded: ineffective at the tested concentrations”.

The values are drawn from publication PMC6286870 (European journal of pharmaceutics and biopharmaceutics : …, 2018).
